Source: PMC11077089, “Molecular basis of A. thaliana KEOPS complex in biosynthesizing tRNA t^6A” (Nucleic Acids Research, 2024)

Columns and labels:
Format in all cases: biochemical
[1] = target: T1, KB (KAE1–BUD32) (Arabidopsis thaliana, UniProt Q94K14); test: NADH-coupled ATPase assay; settings: 2 mM ATP, 5 μM protein, 5 mM MgCl2, pH 7.5, 25°C
T1 construct: gene T1N24.12; pET21a-AtKAE1-BUD32-6His, E. coli; monomer (1:1) by SEC; with tRNA N6-adenosine threonylcarbamoyltransferase KAE1
T1 sequence (Q94K14 1-226): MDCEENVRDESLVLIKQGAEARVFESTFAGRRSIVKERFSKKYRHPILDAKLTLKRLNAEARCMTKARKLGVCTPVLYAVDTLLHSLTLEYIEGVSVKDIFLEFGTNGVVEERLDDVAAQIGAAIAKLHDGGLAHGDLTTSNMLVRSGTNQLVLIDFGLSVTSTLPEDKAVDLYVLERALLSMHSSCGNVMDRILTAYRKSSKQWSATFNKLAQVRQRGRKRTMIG
T1 sequence (O49653 1-353 partner): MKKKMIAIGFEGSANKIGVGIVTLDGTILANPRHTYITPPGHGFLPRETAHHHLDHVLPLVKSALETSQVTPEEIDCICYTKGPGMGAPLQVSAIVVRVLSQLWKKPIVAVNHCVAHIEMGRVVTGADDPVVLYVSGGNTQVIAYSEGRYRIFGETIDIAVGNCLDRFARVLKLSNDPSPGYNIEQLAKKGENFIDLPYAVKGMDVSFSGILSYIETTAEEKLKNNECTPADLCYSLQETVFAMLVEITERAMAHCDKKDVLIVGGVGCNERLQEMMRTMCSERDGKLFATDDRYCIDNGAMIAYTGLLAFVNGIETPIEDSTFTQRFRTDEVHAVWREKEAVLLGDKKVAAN

[2] = target: T2, KBP (KAE1–BUD32–PCC1) (Arabidopsis thaliana, UniProt Q94K14); test: NADH-coupled ATPase assay; settings: 2 mM ATP, 5 μM protein, 5 mM MgCl2, pH 7.5, 25°C
T2 construct: gene T1N24.12; subcomplex without CGI121, recombinant from E. coli; dimer by SEC; with tRNA N6-adenosine threonylcarbamoyltransferase KAE1; EKC/KEOPS complex subunit PCC1
T2 sequence (Q94K14 1-226): T1 sequence (Q94K14 1-226)
T2 sequence (O49653 1-353 partner): T1 sequence (O49653 1-353 partner)
T2 sequence (Q8GWD7 1-96 partner): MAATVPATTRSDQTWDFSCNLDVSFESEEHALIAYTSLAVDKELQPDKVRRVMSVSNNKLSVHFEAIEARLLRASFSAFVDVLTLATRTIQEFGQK

[3] = target: T3, AtYRDC (A. thaliana YRDC) (Arabidopsis thaliana, UniProt F4K0E6); test: LC-MS of TC-AMP formation; settings: 2 μM YRDC, 4 mM L-threonine, 2 mM ATP, 20 mM NaHCO3, 5 mM MgCl2, pH 7.5, 25°C
T3 construct: gene MUP24.1; pET21a-AtYRDC-6His, E. coli, synthetic DNA
T3 sequence (F4K0E6 1-288): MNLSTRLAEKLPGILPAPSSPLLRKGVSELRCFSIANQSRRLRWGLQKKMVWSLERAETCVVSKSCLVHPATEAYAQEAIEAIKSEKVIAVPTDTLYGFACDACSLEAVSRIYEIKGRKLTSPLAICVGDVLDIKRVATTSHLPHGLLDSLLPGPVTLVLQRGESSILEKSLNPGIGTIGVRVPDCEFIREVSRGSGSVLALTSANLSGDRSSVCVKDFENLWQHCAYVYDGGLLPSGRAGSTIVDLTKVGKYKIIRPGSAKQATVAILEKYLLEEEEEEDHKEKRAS

Row | Compound | NADH-coupled ATPase assay [1] | NADH-coupled ATPase assay [2] | LC-MS of TC-AMP formation [3]
1 | Nc1ncnc2c1ncn2[C@@H]1O[C@H](COP(=O)(O)OP(=O)(O)OP(=O)(O)O)[C@@H](O)[C@H]1O [ATP] | efficient conversion of ATP to ADP in the presence of KAE1–BUD32, PCC1–KAE1–BUD32 or KEOPS | efficient conversion of ATP to ADP in the presence of KAE1–BUD32, PCC1–KAE1–BUD32 or KEOPS | –
2 | C[C@@H](O)[C@H](N)C(=O)O [L-threonine] | – | – | YRDC is active in catalyzing the formation of threonylcarbamoyl-AMP (TC-AMP)
